The text below walks through data of US20110117106A1, “USES OF CALPAIN INHIBITORS TO INHIBIT INFLAMMATION” (priority 2008, published 2011).

Entries after “also recorded” stand apart in the source; their conditions may differ.

The test system of data set [1] is SARS-associated coronavirus. The settings on record: one isolate of the coronavirus; cited from earlier work.
For data set [2], the system named is polarized 16HBE cells. Nature of the data set: Bacterial transmigration assay.
Description: Polarized 16HBE cells were pretreated with media alone, heat killed PAO1 (10^7 CFU), P3C (15 μg/ml), or thapsigargin (0.1 μM) for 4 h. Live PAO1 (2×10^7 CFU) were added apically for 1 h and media from the basal compartment collected and plated on LB agar plates. Bacterial transmigration across monolayers pretreated with 0.02% EGTA was used as a positive control.
Data set [3] concerns epithelial cell junctions of polarized 16HBE cells. Briefly: Biotin labeling and confocal microscopy of polarized 16HBE monolayers. The settings on record: 4 h incubation. It counts as cell-based, human. On the procedure: (§1) 16HBE cells were grown on 3 μm pore size Transwell-Clear filters (Corning-Costar) with an air-liquid interface to form polarized monolayers. For confocal imaging, cells were fixed with 4% paraformaldehyde, blocked with 5% normal donkey serum and incubated at 4° C. overnight with the polyclonal pan-calpain (Santa Cruz Biotechnology), monoclonal occludin (Invitrogen/Zymed) and/or monoclonal E-cadherin (BD Pharmingen) antibodies. Alexa Fluor 594 conjugated and Alexa Fluor 488 conjugated secondary antibodies (Invitrogen/Molecular Probes) were added at room temperature for 1 h. After washing, filters were removed from Transwells using a scalpel, mounted with Vectashield with DAPI (Vector Laboratories) onto glass slides and imaged using a Zeiss LSM 510 Meta scanning confocal microscope. For biotin labeling experiments 1 mg/ml EZ-Link Sulfo-NHS-LC-Biotin was added apically for 30 min at 4° C. before fixing the cells. Alexa Fluor 555 conjugated streptavidin (Molecular Probes) was added for detection of biotin.

Data set [4] relates to polarized 16HBE cells. Briefly: Transepithelial resistance and dextran permeability assays. Format: cell-based, human. As to the method:
Polarized 16HBE cells grown in 12 mm Transwell-Clear filters (Corning-Costar) were stimulated apically with 10^7 CFU of heat killed PAO1. Transepithelial resistance readings were taken using a Millipore resistance reader which applies a 20 μA square wave alternating current across the monolayers at 12.5 Hz. The resistance of Transwell inserts without cells was used as a baseline control. After 5 h of stimulation, Alexa Fluor 488 labeled dextran (10,000 MW) was added apically for 1 h and fluorescence in the basal compartment monitored at ex 485, em 535 with a SpectraFluor Plus fluorimeter (Tecan). As a positive control, cells were treated apically and basolaterally for 1 h with 0.02% EGTA, an extracellular Ca^2+ chelator which increases paracellular permeability by disrupting cadherin mediated cell-cell adhesion.

The test system of the next data set is calpain 2 mRNA. Nature of the data set: Real time PCR of calpains and calpastatin in 1HAEo- cells. On the technique in general: Real-time PCR tracks product formation cycle by cycle.
The test system of data set [5] is E-cadherin cleavage by calpain (100 kDa E-cadherin cleavage product). Nature of the data set: E-cadherin cleavage: immunoblot in 1HAEo- cells. As to conditions: airway cells, 4 hr stimulation. Format: cell-based, human. As to the method:
(§2) 1HAEo-cells or SAECs were grown to confluence on 10 cm plates, stimulated with heat killed PAO1 (10^7 CFU) or P3C (15 μg/ml), and whole cell lysates made using 60 mM n-octyl-β-D-glucopyranoside (OGP) in TBS (0.1 M Tris-HCl and 0.15 M NaCl, pH 7.8) containing Complete Mini protease inhibitor tablets (Roche), 1 mM sodium orthovanadate and 100 mM sodium fluoride. Monoclonal anti-E-cadherin (BD Pharmingen), polyclonal anti-pan calpain (Santa Cruz Biotechnologies) or monoclonal anti-occludin (Invitrogen/Zymed) antibodies were used for immunoprecipitations followed by the addition of Protein G Agarose beads (Invitrogen) (Chun and Prince, 2006). Immunodetection was performed using monoclonal anti-E-cadherin, polyclonal anti-occludin, anti-pan calpain, anti-calpain 1 and anti-calpain 2 antibodies (Santa Cruz Biotechnology).

In data set [6] the test system is occludin cleavage by calpain (45 kDa occludin cleavage product). Briefly: Occludin cleavage: immunoprecipitation and immunoblot in 1HAEo- cells. It counts as cell-based, human. As to the method:
as §2
1HAEo-cells were transiently transfected with scrambled (control) or calpain 1 and 2 siRNA Smart pool oligos (Dharmacon) (FIGS. 11 and 12). Transfection was carried out using an Amaxa Nucleofector following manufacturer's instructions. Briefly, 10^6 1HAEo-cells were electroporated in 100 μl Buffer L with 1.5 μg of scrambled or siRNA oligo and transferred into pre-warmed 6 well tissue culture dishes. Cells were incubated at 37° C., 5% CO2 for 48 hours before performing experiments.
On the technique in general: A western blot detects proteins with antibodies after separation by electrophoresis.

Another data set relates to calpain. Briefly: Calpain assay with cell permeable fluorogenic calpain substrate (Boc-LM-CMAC). Format: cell-based, human. The settings on record: 1HAEo- cells and SAEC. As to the method:
Confluent monolayers of 1HAEo-cells or SAECs were loaded with 20 μM t-BOC-L-leucine-L-methionine amide (Boc-LM-CMAC), a calpain specific membrane permeable fluorogenic substrate. Cells were stimulated with heat killed PAO1 (10^7 CFU) or P3C (15 μg/ml) and fluorescence was quantified at ex 360 nm and em 465 nm with a Spectrafluor Plus fluorimeter (Tecan).

The subject of data set [7] is occludin, E-cadherin and calpain localization in 16HBE cells. Nature of the data set: Confocal imaging of junctional proteins and calpain in polarized 16HBE cells. It counts as cell-based, human. The settings on record: for Distribution of occludin and E-cadherin at cell junctions: 6 hr exposure. On the procedure: as §1
For data set [8], the system named is NF-κB activation, IL-8 production. Nature of the data set: NF-κB activation and IL-8 production in airway cells. The settings on record: cells treated with BAPTA/AM to chelate intracellular Ca2+. It counts as cell-based.
The target of another data set is T1, occludin, Q16625.
T1 chain: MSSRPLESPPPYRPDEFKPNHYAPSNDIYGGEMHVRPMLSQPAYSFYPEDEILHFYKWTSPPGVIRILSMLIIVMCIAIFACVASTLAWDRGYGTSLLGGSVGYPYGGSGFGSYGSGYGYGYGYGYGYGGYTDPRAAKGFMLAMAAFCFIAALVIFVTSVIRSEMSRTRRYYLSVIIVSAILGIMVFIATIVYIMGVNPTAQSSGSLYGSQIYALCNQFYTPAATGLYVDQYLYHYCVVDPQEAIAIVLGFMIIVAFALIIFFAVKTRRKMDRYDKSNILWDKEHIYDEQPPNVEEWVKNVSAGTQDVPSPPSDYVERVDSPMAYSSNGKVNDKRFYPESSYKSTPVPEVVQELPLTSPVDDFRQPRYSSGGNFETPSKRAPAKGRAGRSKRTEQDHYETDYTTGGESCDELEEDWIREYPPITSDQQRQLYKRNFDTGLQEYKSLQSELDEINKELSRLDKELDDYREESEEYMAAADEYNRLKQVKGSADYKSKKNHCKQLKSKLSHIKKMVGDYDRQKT

Another data set concerns the target T2, E-cadherin, P12830.
T2 chain: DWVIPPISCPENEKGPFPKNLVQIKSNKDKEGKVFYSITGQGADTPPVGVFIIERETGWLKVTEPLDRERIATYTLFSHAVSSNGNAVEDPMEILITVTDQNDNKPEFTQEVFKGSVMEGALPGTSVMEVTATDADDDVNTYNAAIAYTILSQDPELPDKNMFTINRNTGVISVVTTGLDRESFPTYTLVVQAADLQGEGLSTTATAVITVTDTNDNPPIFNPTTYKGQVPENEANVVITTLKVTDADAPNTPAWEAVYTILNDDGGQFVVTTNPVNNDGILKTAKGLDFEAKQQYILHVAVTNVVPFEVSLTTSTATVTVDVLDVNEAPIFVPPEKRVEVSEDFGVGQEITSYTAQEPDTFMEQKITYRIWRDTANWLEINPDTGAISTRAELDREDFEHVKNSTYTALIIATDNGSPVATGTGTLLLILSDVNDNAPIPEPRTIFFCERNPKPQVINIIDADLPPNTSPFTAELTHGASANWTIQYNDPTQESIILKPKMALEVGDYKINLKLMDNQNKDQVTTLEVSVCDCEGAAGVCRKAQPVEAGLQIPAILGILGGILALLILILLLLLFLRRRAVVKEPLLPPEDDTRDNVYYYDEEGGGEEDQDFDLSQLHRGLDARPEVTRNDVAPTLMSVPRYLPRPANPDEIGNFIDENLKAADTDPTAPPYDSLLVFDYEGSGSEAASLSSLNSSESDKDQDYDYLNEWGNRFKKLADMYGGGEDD

Regarding `NC(=O)c1ncn([C@@H]2O[C@H](CO)[C@@H](O)[C@H]2O)n1` [Ribavirin], in [1], the “Virus growth or cell-to-cell spread” value is “does not inhibit”.
Pam3Cys-Ser-Lys4 [P3C]: the “Bacterial invasion across the monolayer” value in the data set on polarized 16HBE cells [2] is given as “no changes”. The “Penetration of biotin between cells of polarized monolayer” value in data set [3] is “resulted in the penetration of biotin; also recorded: increase in accessibility of the junctions to biotin”. The Transepithelial resistance entry in the data set with polarized 16HBE cells [4] is “no changes”. For the same molecule, the “Transcription of calpain 2” value in the data set with calpain 2 mRNA is reported as “increased”. Besides, in data set [5], the “100 kDa E-cadherin cleavage product after stimulation” value is given as “generation of a 100 kDa E-cadherin cleavage product”. Moreover, in data set [6] (1HAEo- and SAEC, 1 hour post stimulation), the “45 kDa occludin cleavage product after stimulation” value is listed as “readily identified”. Also, the figures for the “Calpain activity after exposure to the stimulus” value in the data set with calpain and in the data set on calpain (listed as Pam3Cys) were “significantly increased; also recorded: sufficient to activate calpain” and “activates calpain 2”, respectively. For the same molecule, in [7] (1 hr stimulation), the “Co-localization of calpain and E-cadherin” value is given as “increased; also recorded: co-localizing with E-cadherin”. Also, the “Co-localization of calpain and occludin” value in [7] (1 h stimulation) is given as “Increased co-localization; also recorded: co-localized with membrane-associated occludin; also recorded: Increased colocalization”. For the same molecule, the “Distribution of occludin and E-cadherin at cell junctions” value was “dramatic loss; also recorded: altered” in data set [7] and “altered” in [7] (listed as PC3).
For `CC(=O)OCOC(=O)CN(CC(=O)OCOC(C)=O)c1ccccc1OCCOc1ccccc1N(CC(=O)OCOC(C)=O)CC(=O)OCOC(C)=O` [BAPTA/AM], the “Distal proinflammatory signaling (NF-κB activation, IL-8 production)” value in data set [8] is given as “unable to activate distal proinflammatory signaling”. In data set [6] (6 μM BAPTA/AM, 20 μM ALLN, 20 μM GM6001, 25 μM Z-DEVD-FMK), the “Generation of occludin cleavage product in presence of inhibitor” value is listed as “substantially decreased”.

B1: exogenous human calpain 1 (protein)
chain: SEEIITPVYCTGVSAQVQKQRARELGLGRHENAIKYLGQDYEQLRVRCLQSGTLFRDEAFPPVPQSLGYKDLGPNSSKTYGIKWKRPTELLSNPQFIVDGATRTDICQGALGDCWLLAAIASLTLNDTLLHRVVPHGQSFQNGYAGIFHFQLWQFGEWVDVVVDDLLPIKDGKLVFVHSAEGNEFWSALLEKAYAKVNGSYEALSGGSTSEGFEDFTGGVTEWYELRKAPSDLYQIILKALERGSLLGCSIDISSVLDMEAITFKKLVKGHAYSVTGAKQVNYRGQVVSLIRMRNPWGEVEWTGAWSDSSSEWNNVDPYERDQLRVKMEDGEFWMSFRDFMREFTRLEICNLTPDALKSRTIRKWNTTLYEGTWRRGSTAGGCRNYPATFWVNPQFKIRLDETDDPDDYGDRESGCSFVLALMQKHRRRERRFGRDMETIGFAVYEVPPELVGQPAVHLKRDFFLANASRARSEQFINLREVSTRFRLPPGEYVVVPSTFEPNKEGDFVLRFFSEKSAGTVELDDQIQANLPDEQVLSEEEIDENFKALFRQLAGEDMEISVKELRTILNRIISKHKDLRTKGFSLESCRSMVNLMDRDGNGKLGLVEFNILWNRIRNYLSIFRKFDLDKSGSMSAYEMRMAIESAGFKLNKKLYELIITRYSEPDLAVDFDNFVCCLVRLETMFRFFKTLDTDLDGVVTFDLFKWLQLTMFA
As for B1, the “in vitro degradation (cleavage) of the immunoprecipitated protein by Ca2+-activated exogenous calpain, immunoblot” value in the data set with occludin, Q16625 was “exogenous calpain activated by the addition of Ca2+ degraded occludin and E-cadherin, but not claudin-1 or JAM-1”; with E-cadherin, P12830, “exogenous calpain activated by the addition of Ca2+ degraded occludin and E-cadherin, but not claudin-1 or JAM-1”.
